Here are results for five compounds from ChEMBL document CHEMBL1914411, “Synthesis of lipophilic dimeric C-7/C-7-linked ciprofloxacin and C-6/C-6-linked levofloxacin derivatives. Versatile in vitro biological evaluations of monomeric and dimeric fluoroquinolone derivatives as potential antitumor, antibacterial or antimycobacterial agents” (Eur J Med Chem, 2011).

Converted amounts (≈) assume the structure as drawn. The source made the active and inactive calls. How the calls were made is not given here.

Data set [1] relates to Staphylococcus aureus. The data set is described as follows: Antimicrobial activity against Staphylococcus aureus CIP 4.83 after 18 to 24 hrs by broth microdilution method. The data set is classed as functional.
Data set [2] concerns Mycobacterium tuberculosis. The data set is described as follows: Antimycobacterial activity against Mycobacterium tuberculosis H37Rv assessed as growth inhibition at 0.1 uM after 6 days by MTT colorimetric microassay. Format: functional, organism-based.
A further data set relates to Enterococcus hirae. The data set is described as follows: Antimicrobial activity against Enterococcus hirae CIP 5855 after 18 to 24 hrs by broth microdilution method. The data set is classed as functional.
A short description of data set [3]: Solubility of compound in cell medium at 20 uM at 37 degC after 24 hrs. Format: physicochemical.
For data set [4], the system named is Mycobacterium tuberculosis. The data set is described as follows: Antimycobacterial activity against Mycobacterium tuberculosis H37Rv assessed as growth inhibition at 10 uM after 6 days by MTT colorimetric microassay. The data set is classed as functional. The conditions noted are these: 144 h, read-out: GI.
The subject of the next data set is Escherichia coli. The data set is described as follows: Antimicrobial activity against Escherichia coli CIP 53126 after 18 to 24 hrs by broth microdilution method. Format: functional.
Data set [5] relates to Mycobacterium tuberculosis. The data set is described as follows: Antimycobacterial activity against Mycobacterium tuberculosis H37Rv after 6 days by MTT colorimetric microassay. Format: functional, organism-based. Particulars: 144 h.
The next data set deals with Pseudomonas aeruginosa. The data set is described as follows: Antimicrobial activity against Pseudomonas aeruginosa CIP 82.118 after 18 to 24 hrs by broth microdilution method. The data set is classed as functional.
The subject of data set [6] is Staphylococcus aureus. The data set is described as follows: Antimicrobial activity against methicillin-resistant Staphylococcus aureus ATCC 33592 after 18 to 24 hrs by broth microdilution method. Format: functional.
The subject of data set [7] is Staphylococcus aureus. The data set is described as follows: Antimicrobial activity against methicillin-resistant Staphylococcus aureus ATCC 33591 after 18 to 24 hrs by broth microdilution method. Format: functional.
A further data set relates to MCF7. The data set is described as follows: Antiproliferative activity against human MCF7 cells after 120 hrs by MTT asasy. Particulars: MCF7, 120 h. Format: functional, cell-based.
Data set [8] relates to Staphylococcus aureus. The data set is described as follows: Antimicrobial activity against multidrug-resistant Staphylococcus aureus isolate 2 after 18 to 24 hrs by broth microdilution method. Format: functional.
Data set [9] concerns Staphylococcus aureus. The data set is described as follows: Antimicrobial activity against multidrug-resistant Staphylococcus aureus isolate 1 after 18 to 24 hrs by broth microdilution method. Format: functional.
Data set [10] can be described thus: Antiproliferative activity against human U373MG cells after 120 hrs by MTT asasy. Format: functional, cell-based, U-373MG ATCC. Particulars: U373 MG.
The subject of data set [11] is Staphylococcus aureus. The data set is described as follows: Ratio of ciprofloxacin MIC to compound MIC for multidrug-resistant Staphylococcus aureus isolate 2. The data set is classed as functional.
Data set [12] has as its system Staphylococcus aureus. The data set is described as follows: Ratio of ciprofloxacin MIC to compound MIC for multidrug-resistant Staphylococcus aureus isolate 1. Format: functional.

As for `C[C@H]1COc2c(N3CCN(C)CC3)c(F)cc3c(=O)c(C(=O)NCCCCCCCCCCCCNC(=O)c4cn5c6c(c(N7CCN(C)CC7)c(F)cc6c4=O)OC[C@@H]5C)cn1c23`, the MBC is 1.9 µM (≈ 1.69 µg/mL) in the data set on Staphylococcus aureus [1], 3.9 µM (≈ 3.46 µg/mL) against Enterococcus hirae, at most 0.97 µM against Escherichia coli and 31.2 µM (≈ 27.7 µg/mL) in the data set with Pseudomonas aeruginosa. The MIC against Staphylococcus aureus [1] was 1.9 µM (≈ 1.69 µg/mL); in the data set with Enterococcus hirae it was 3.9 µM (≈ 3.46 µg/mL); in the data set with Escherichia coli it was at most 0.97 µM; in [5], 5 µM (≈ 4.44 µg/mL); with Pseudomonas aeruginosa, 31.2 µM (≈ 27.7 µg/mL). Besides, the “growth inhibition (GI)” value in data set [2] was “inactive”. Also, in data set [3], the solubility entry is “Insoluble”. Besides, the inhibition of growth at 10 µM in data set [4] was determined as 60%. In [5], this compound returned an IC50 of 2.1 µM.
Turning to `C[C@H]1COc2c(N3CCN(C)CC3)c(F)cc3c(=O)c(C(=O)NCCCCCCCCCCNC(=O)c4cn5c6c(c(N7CCN(C)CC7)c(F)cc6c4=O)OC[C@@H]5C)cn1c23`, the MBC against Staphylococcus aureus [1] was 7.8 µM (≈ 6.7 µg/mL); in the data set on Enterococcus hirae, 62.5 µM (≈ 53.7 µg/mL); against Escherichia coli, at most 0.97 µM; in the data set with Pseudomonas aeruginosa it was 62.5 µM (≈ 53.7 µg/mL). For the same compound, the MIC against Staphylococcus aureus [1] is 7.8 µM (≈ 6.7 µg/mL); against Enterococcus hirae it was 31.2 µM (≈ 26.8 µg/mL); against Escherichia coli, at most 0.97 µM; in data set [5] it was 5 µM (≈ 4.3 µg/mL); in the data set with Pseudomonas aeruginosa it was 31.2 µM (≈ 26.8 µg/mL). In [2], the “growth inhibition (GI)” value was “inactive”. The solubility entry in data set [3] was “Insoluble”. Also, the inhibition of growth at 10 µM in data set [4] was 60%. Also, the IC50 in data set [5] came out at 2.4 µM.
For `O=C(CCCCCCCCCCCCC(=O)OCN1CCN(c2cc3c(cc2F)c(=O)c(C(=O)O)cn3C2CC2)CC1)OCN1CCN(c2cc3c(cc2F)c(=O)c(C(=O)O)cn3C2CC2)CC1`, the MBC against Staphylococcus aureus [6] was 0.48 µM (≈ 0.454 µg/mL); in the data set on Staphylococcus aureus [7], 3.9 µM (≈ 3.69 µg/mL); against Staphylococcus aureus [1], at most 0.97 µM; in the data set with Enterococcus hirae, 15.6 µM (≈ 14.7 µg/mL); in the data set with Staphylococcus aureus [8] it was 62.5 µM (≈ 59.1 µg/mL); in the data set on Escherichia coli, 62.5 µM (≈ 59.1 µg/mL). Moreover, the MBC is 250 µM (≈ 236 µg/mL) against Staphylococcus aureus [9] and 125 µM (≈ 118 µg/mL) in the data set on Pseudomonas aeruginosa. For the same compound, the MIC was 0.97 µM (≈ 0.917 µg/mL) with Staphylococcus aureus [7]; at most 0.97 µM against Staphylococcus aureus [1]; 15.6 µM (≈ 14.7 µg/mL) against Enterococcus hirae; 31.2 µM (≈ 29.5 µg/mL) in the data set on Staphylococcus aureus [8]; 31.2 µM (≈ 29.5 µg/mL) in the data set with Escherichia coli; 62.5 µM (≈ 59.1 µg/mL) in the data set with Staphylococcus aureus [9]. 62.5 µM (≈ 59.1 µg/mL) was the least that counted as inhibitory with Pseudomonas aeruginosa (MIC). The IC50 was determined as 9 µM in the data set on MCF7 and 3 µM in data set [10]. Further, in data set [2], the “growth inhibition (GI)” value was “inactive”. Besides, in data set [4], the inhibition of growth at 10 µM came out at 87%.
As for `CCCCCCCCCC(=O)OCC(=O)N1CCN(c2cc3c(cc2F)c(=O)c(C(=O)O)cn3C2CC2)CC1`, the MBC against Staphylococcus aureus [7] was 0.48 µM (≈ 0.261 µg/mL); in the data set on Staphylococcus aureus [1], at most 0.97 µM; against Enterococcus hirae, 15.6 µM (≈ 8.48 µg/mL); against Staphylococcus aureus [8], 15.6 µM (≈ 8.48 µg/mL); in the data set with Escherichia coli, 15.6 µM (≈ 8.48 µg/mL); against Staphylococcus aureus [9], 15.6 µM (≈ 8.48 µg/mL). The compound also registered an MBC against Pseudomonas aeruginosa of 250 µM (≈ 136 µg/mL). Further, the MIC against Staphylococcus aureus [7] is 0.24 µM (≈ 0.13 µg/mL); with Staphylococcus aureus [1] it was at most 0.97 µM; with Enterococcus hirae, 7.8 µM (≈ 4.24 µg/mL); with Staphylococcus aureus [8], 7.8 µM (≈ 4.24 µg/mL); in the data set with Escherichia coli it was 15.6 µM (≈ 8.48 µg/mL); in the data set on Staphylococcus aureus [9] it was 7.8 µM (≈ 4.24 µg/mL). In the data set on Pseudomonas aeruginosa, this compound had an MIC of 31.2 µM (≈ 17 µg/mL). Besides, the Ratio with Staphylococcus aureus [11] and in the data set with Staphylococcus aureus [12] was 2 each time. Besides, in data set [2], the “growth inhibition (GI)” value is “inactive”. In data set [4], the inhibition of growth at 10 µM was over 95%.
`CCCCCC(=O)OCC(=O)N1CCN(c2cc3c(cc2F)c(=O)c(C(=O)O)cn3C2CC2)CC1`: the MBC is 0.06 µM (≈ 0.0293 µg/mL) in the data set on Staphylococcus aureus [7]; at most 0.24 µM in the data set with Staphylococcus aureus [1]; at most 0.97 µM against Enterococcus hirae; 15.6 µM (≈ 7.61 µg/mL) in the data set with Staphylococcus aureus [8]; 31.2 µM (≈ 15.2 µg/mL) against Escherichia coli; 500 µM (≈ 244 µg/mL) with Staphylococcus aureus [9]. Also, in the data set with Pseudomonas aeruginosa, the MBC was determined as 250 µM (≈ 122 µg/mL). Also, the MIC in the data set with Staphylococcus aureus [7] is 0.03 µM (≈ 0.0146 µg/mL); against Staphylococcus aureus [1], at most 0.03 µM; against Enterococcus hirae, at most 0.97 µM; against Staphylococcus aureus [8] it was 7.8 µM (≈ 3.8 µg/mL); against Escherichia coli it was 31.2 µM (≈ 15.2 µg/mL); against Staphylococcus aureus [9], 15.6 µM (≈ 7.61 µg/mL). The MIC with Pseudomonas aeruginosa is 62.5 µM (≈ 30.5 µg/mL). Also, the Ratio in the data set with Staphylococcus aureus [11] and in the data set on Staphylococcus aureus [12] was 2 in each case. In addition, the “growth inhibition (GI)” value in data set [2] is “inactive”. Moreover, in data set [4], the inhibition of growth at 10 µM is over 95%.
